Test results from patent publication US8168592B2 (Amgen Inc., priority 2005, dated 2012).
Where two headings read alike, the source gives them in different places. One block for each compound: values may come before it. Bridge positions count the residues as written; N and C are the ends. Square brackets hold non-standard residues; d marks the D form. Peptide text beside a SMILES is read from it. Bip = N[C@@H](Cc1ccc(-c2ccccc2)cc1)C(=O)O; Oic = O=C(O)[C@@H]1C[C@@H]2CCCC[C@@H]2N1; hArg = N=C(N)NCCCC[C@H](N)C(=O)O; Cit = NC(=O)NCCC[C@H](N)C(=O)O; Nle = CCCC[C@H](N)C(=O)O; PEG = not defined here; Ahx = NCCCCCC(=O)O

Target: T1, CGRP1 receptor (Homo sapiens, UniProt O60894+Q16602)
T1 construct: SK-N-MC cells express CRLR and RAMP1, which form CGRP1 receptor; endogenous in cells; host or cells: SK-N-MC human neuroblastoma cells
T1 sequence (Q16602 23-461): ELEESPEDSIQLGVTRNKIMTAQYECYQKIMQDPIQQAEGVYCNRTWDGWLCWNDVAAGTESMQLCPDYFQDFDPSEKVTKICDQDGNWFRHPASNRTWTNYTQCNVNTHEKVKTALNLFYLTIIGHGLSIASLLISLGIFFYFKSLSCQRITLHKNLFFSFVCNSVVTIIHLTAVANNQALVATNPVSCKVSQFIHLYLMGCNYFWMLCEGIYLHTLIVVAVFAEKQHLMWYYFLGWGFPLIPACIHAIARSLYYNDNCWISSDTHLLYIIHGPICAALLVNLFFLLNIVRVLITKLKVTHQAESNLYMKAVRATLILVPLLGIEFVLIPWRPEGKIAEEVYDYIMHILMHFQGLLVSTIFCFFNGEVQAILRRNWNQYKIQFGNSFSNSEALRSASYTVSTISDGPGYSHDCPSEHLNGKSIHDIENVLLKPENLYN
T1 sequence (O60894 27-148): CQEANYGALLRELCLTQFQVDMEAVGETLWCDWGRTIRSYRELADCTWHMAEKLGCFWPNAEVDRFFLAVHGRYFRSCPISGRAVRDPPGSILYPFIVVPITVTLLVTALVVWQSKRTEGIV
Assay: in vitro CGRP1 receptor mediated cAMP assay in SK-N-MC cells
Format: cell-based
Method in brief: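 Human SK-N-MC neuroblastoma cells, which endogenously express CRLR/RAMP1, were plated two days before assay and preincubated in plasma-free medium for 15 minutes at room temperature. Cells were then lysed for 30 minutes at 37° C, and cAMP in the lysates was quantified by competitive cAMP-AP chemiluminescent ELISA.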

[1] = Table 2C, unconjugated peptide, read-out: Peptide IC50

- IC50 (Table 2A, read-out: IC50): 3.19 to 4.42 nM
Compound: CC(=O)N[C@@H](Cc1c[nH]c2ccccc12)C(=O)N[C@H](C(=O)N[C@H](C(=O)N[C@@H](Cc1cnc[nH]1)C(=O)N[C@@H](CCCNC(N)=O)C(=O)N[C@@H](CC(C)C)C(=O)N[C@@H](C)C(=O)NCC(=O)N[C@@H](CC(C)C)C(=O)N[C@@H](CC(C)C)C(=O)N[C@@H](CO)C(=O)N[C@@H](CCCNC(N)=O)C(=O)N[C@@H](CO)C(=O)NCC(=O)NCC(=O)N[C@H](C(=O)N[C@H](C(=O)N[C@@H](CCCCNC(=N)N)C(=O)N[C@@H](CCCCN)C(=O)N[C@@H](CC(N)=O)C(=O)N[C@@H](Cc1ccccc1)C(=O)N[C@H](C(=O)N1CCC[C@H]1C(=O)N[C@H](C(=O)N[C@@H](CC(=O)O)C(=O)N[C@H](C(=O)NCC(=O)N(C)CC(=O)N[C@@H](Cc1ccccc1)C(=O)N[C@@H](C)C(=O)N[C@@H](Cc1ccccc1)C(N)=O)C(C)C)[C@@H](C)O)C(C)C)C(C)C)C(C)C)[C@@H](C)O)C(C)C [compound 672]

- IC50 [1]: 0.53 nM
Compound: Ac-WVTHQLAGLLSQSGGVVRKNFVPTDVGPFAF-NH2 [compound 857]

- IC50 [1]: 1.8 nM
Compound: CC(C)C[C@H](NC(=O)CNC(=O)[C@H](C)NC(=O)[C@H](CC(C)C)NC(=O)[C@H](CCCNC(=N)N)NC(=O)[C@H](Cc1c[nH]cn1)NC(=O)[C@@H](NC(=O)[C@@H](NC(=O)[C@H](Cc1c[nH]c2ccccc12)NC(=O)CCCCCNC(=O)[C@@H](N)CS)C(C)C)[C@@H](C)O)C(=O)N[C@@H](CC(C)C)C(=O)N[C@@H](CO)C(=O)N[C@@H](CCCNC(=N)N)C(=O)N[C@@H](CO)C(=O)NCC(=O)NCC(=O)N[C@H](C(=O)N[C@H](C(=O)N[C@@H](CCCNC(=N)N)C(=O)N[C@@H](CCCCN)C(=O)N[C@@H](CC(N)=O)C(=O)N[C@@H](Cc1ccccc1)C(=O)N[C@H](C(=O)N1CCC[C@H]1C(=O)N[C@H](C(=O)N[C@@H](CC(=O)O)C(=O)N[C@H](C(=O)NCC(=O)N1CCC[C@H]1C(=O)N[C@@H](Cc1ccccc1)C(=O)N[C@@H](C)C(=O)N[C@@H](Cc1ccccc1)C(N)=O)C(C)C)[C@@H](C)O)C(C)C)C(C)C)C(C)C [compound 916] (H-C[Ahx]WVTHRLAGLLSRSGGVVRKNFVPTDVGPFAF-NH2)

Compound: SEQ ID NO:30 (WVTHRLAGLLSXSGGVVRKNFVPTDVGPFAF; CGRP peptide; MOD_RES (1)..(1): …ON; MISC_FEATURE (12)..(12): xaa=citrulline; MISC_FEATURE (19)..(19): PEGylated; MOD_RES (31)..(31): AMIDATION)
- antagonist activity in cAMP assay, in words: relatively minor loss of in vitro antagonist activity

- IC50 (Table 2A, read-out: IC50): 2.29 to 2.95 nM
Compound: CC(=O)N[C@@H](Cc1c[nH]c2ccccc12)C(=O)N[C@H](C(=O)N[C@H](C(=O)N[C@@H](Cc1c[nH]cn1)C(=O)N[C@@H](CCCNC(N)=O)C(=O)N[C@@H](CC(C)C)C(=O)N[C@@H](C)C(=O)NCC(=O)N[C@@H](CC(C)C)C(=O)N[C@@H](CC(C)C)C(=O)N[C@@H](CO)C(=O)N[C@@H](CCCNC(N)=O)C(=O)N[C@@H](CO)C(=O)NCC(=O)NCC(=O)N[C@H](C(=O)N[C@H](C(=O)N[C@@H](Cc1ccc(NC(=N)N)cc1)C(=O)N[C@@H](CCCCN)C(=O)N[C@@H](CC(N)=O)C(=O)N[C@@H](Cc1ccccc1)C(=O)N[C@H](C(=O)N1CCC[C@H]1C(=O)N[C@H](C(=O)N[C@@H](CC(=O)O)C(=O)N[C@H](C(=O)NCC(=O)N1[C@H](C(=O)N[C@@H](Cc2ccccc2)C(=O)N[C@@H](C)C(=O)N[C@@H](Cc2ccccc2)C(N)=O)C[C@@H]2CCCC[C@@H]21)C(C)C)[C@@H](C)O)C(C)C)C(C)C)C(C)C)[C@@H](C)O)C(C)C [compound 664]

- IC50 (Table 2A, read-out: IC50): > 1000 nM
Compound: CC(=O)N[C@@H](Cc1c[nH]c2ccccc12)C(=O)N[C@H](C(=O)N[C@H](C(=O)N[C@@H](Cc1c[nH]cn1)C(=O)N[C@@H](CCCNC(N)=O)C(=O)N[C@@H](CC(C)C)C(=O)N[C@@H](C)C(=O)NCC(=O)N[C@@H](CC(C)C)C(=O)N[C@@H](CC(C)C)C(=O)N[C@@H](CO)C(=O)N[C@@H](CCCNC(N)=O)C(=O)N[C@@H](CO)C(=O)NCC(=O)NCC(=O)N[C@H](C(=O)N[C@H](C(=O)N[C@@H](CCCCNC(=N)N)C(=O)N[C@@H](CCCCN)C(=O)N[C@@H](CC(N)=O)C(=O)N[C@@H](Cc1ccccc1)C(=O)N[C@H](C(=O)N1CCC[C@H]1C(=O)N[C@H](C(=O)N[C@@H](CC(=O)O)C(=O)N[C@H](C(=O)NCC(=O)N1CCC[C@H]1C(=O)N[C@@H](Cc1ccccc1)C(N)=O)C(C)C)[C@@H](C)O)C(C)C)C(C)C)C(C)C)[C@@H](C)O)C(C)C [compound 655] (Ac-WVTH[Cit]LAGLLS[Cit]SGGVV[hArg]KNFVPTDVGPF-NH2)

- IC50 (Table 2A, read-out: IC50): 3.85 nM
Compound: CC(=O)N[C@@H](Cc1c[nH]c2ccccc12)C(=O)N[C@H](C(=O)N[C@H](C(=O)N[C@@H](Cc1c[nH]cn1)C(=O)N[C@@H](CCCNC(N)=O)C(=O)N[C@@H](CC(C)C)C(=O)N[C@@H](C)C(=O)NCC(=O)N[C@@H](CC(C)C)C(=O)N[C@@H](CC(C)C)C(=O)N[C@@H](CO)C(=O)N[C@@H](CCCNC(N)=O)C(=O)N[C@@H](CO)C(=O)NCC(=O)NCC(=O)N[C@H](C(=O)N[C@H](C(=O)N[C@@H](CCCCNC(=N)N)C(=O)N[C@@H](CCCCN)C(=O)N[C@@H](CC(N)=O)C(=O)N[C@@H](Cc1ccccc1)C(=O)N[C@H](C(=O)N1[C@H](C(=O)N[C@H](C(=O)N[C@@H](CC(=O)O)C(=O)N[C@H](C(=O)NCC(=O)N2CCC[C@H]2C(=O)N[C@@H](Cc2ccc(-c3ccccc3)cc2)C(=O)N[C@@H](C)C(=O)N[C@@H](Cc2ccccc2)C(N)=O)C(C)C)[C@@H](C)O)C[C@@H]2CCCC[C@@H]21)C(C)C)C(C)C)C(C)C)[C@@H](C)O)C(C)C [compound 134] (Ac-WVTH[Cit]LAGLLS[Cit]SGGVV[hArg]KNFV[Oic]TDVGP[Bip]AF-NH2)

- IC50 [1]: 1.42 nM
Compound: CC(=O)N[C@@H](Cc1c[nH]c2ccccc12)C(=O)N[C@H](C(=O)N[C@H](C(=O)N[C@@H](Cc1c[nH]cn1)C(=O)N[C@@H](CCC(N)=O)C(=O)N[C@@H](CC(C)C)C(=O)N[C@@H](C)C(=O)NCC(=O)N[C@@H](CC(C)C)C(=O)N[C@@H](CC(C)C)C(=O)N[C@@H](CO)C(=O)N[C@@H](CCC(N)=O)C(=O)N[C@@H](CO)C(=O)NCC(=O)NCC(=O)N[C@H](C(=O)N[C@H](C(=O)N[C@@H](CCCCNC(=N)N)C(=O)N[C@@H](CCCCN)C(=O)N[C@@H](CC(N)=O)C(=O)N[C@@H](Cc1ccccc1)C(=O)N[C@H](C(=O)N1CCC[C@H]1C(=O)N[C@H](C(=O)N[C@@H](CC(=O)O)C(=O)N[C@H](C(=O)NCC(=O)N1CCC[C@H]1C(=O)N[C@@H](Cc1ccccc1)C(=O)N[C@@H](C)C(=O)N[C@@H](Cc1ccccc1)C(N)=O)C(C)C)[C@@H](C)O)C(C)C)C(C)C)C(C)C)[C@@H](C)O)C(C)C [compound 885] (Ac-WVTHQLAGLLSQSGGVV[hArg]KNFVPTDVGPFAF-NH2)

- antagonist activity in cAMP assay, in words: reasonably good in vitro potency
Compound: SEQ ID NO:40 (Ac-WVTHQLAGLLSQSGGVVRK(PEG)NFVPTDVGPFAF-NH2; reading uncertain)

Compound: SEQ ID NO:41 (Ac-WVTHRLAGLLS[dR]SGGVVRCNFVPTDVGPFAF-NH2; SMILES CC(=O)N[C@@H](Cc1c[nH]c2ccccc12)C(=O)N[C@H](C(=O)N[C@H](C(=O)N[C@@H](Cc1c[nH]cn1)C(=O)N[C@@H](CCCNC(=N)N)C(=O)N[C@@H](CC(C)C)C(=O)N[C@@H](C)C(=O)NCC(=O)N[C@@H](CC(C)C)C(=O)N[C@@H](CC(C)C)C(=O)N[C@@H](CO)C(=O)N[C@H](CCCNC(=N)N)C(=O)N[C@@H](CO)C(=O)NCC(=O)NCC(=O)N[C@H](C(=O)N[C@H](C(=O)N[C@@H](CCCNC(=N)N)C(=O)N[C@@H](CS)C(=O)N[C@@H](CC(N)=O)C(=O)N[C@@H](Cc1ccccc1)C(=O)N[C@H](C(=O)N1CCC[C@H]1C(=O)N[C@H](C(=O)N[C@@H](CC(=O)O)C(=O)N[C@H](C(=O)NCC(=O)N1CCC[C@H]1C(=O)N[C@@H](Cc1ccccc1)C(=O)N[C@@H](C)C(=O)N[C@@H](Cc1ccccc1)C(N)=O)C(C)C)[C@@H](C)O)C(C)C)C(C)C)C(C)C)[C@@H](C)O)C(C)C)
- antagonist activity in cAMP assay, in words: well tolerated

Compound: CC(=O)N[C@@H](Cc1c[nH]c2ccccc12)C(=O)N[C@H](C(=O)N[C@H]1CCC(=O)NCCCC[C@@H](C(=O)NCC(=O)N[C@@H](CC(C)C)C(=O)N[C@@H](CC(C)C)C(=O)N[C@@H](CO)C(=O)N[C@@H](CCCNC(N)=O)C(=O)N[C@@H](CO)C(=O)NCC(=O)NCC(=O)N[C@H](C(=O)N[C@H](C(=O)N[C@@H](CCCCNC(=N)N)C(=O)N[C@@H](CCCCN)C(=O)N[C@@H](CC(N)=O)C(=O)N[C@@H](Cc2ccccc2)C(=O)N[C@H](C(=O)N2CCC[C@H]2C(=O)N[C@H](C(=O)N[C@@H](CC(=O)O)C(=O)N[C@H](C(=O)NCC(=O)N2CCC[C@H]2C(=O)N[C@@H](Cc2ccccc2)C(=O)N[C@@H](C)C(=O)N[C@@H](Cc2ccccc2)C(N)=O)C(C)C)[C@@H](C)O)C(C)C)C(C)C)C(C)C)NC(=O)[C@H](CC(C)C)NC(=O)[C@H](CCCNC(=N)N)NC(=O)[C@H](Cc2c[nH]cn2)NC1=O)C(C)C [compound 906] (Ac-WVEHRLKGLLS[Cit]SGGVV[hArg]KNFVPTDVGPFAF-NH2; lactam 3-7)
- IC50 (Peptide IC50, Table 2C, unconjugated peptide): 1.15 nM

- IC50 [1]: 1.85 nM
Compound: CCCC[C@H](NC(=O)[C@@H](NC(=O)CNC(=O)CNC(=O)[C@H](CO)NC(=O)[C@H](CCCNC(N)=O)NC(=O)[C@H](CO)NC(=O)[C@H](CC(C)C)NC(=O)[C@H](CC(C)C)NC(=O)CNC(=O)[C@H](C)NC(=O)[C@H](CC(C)C)NC(=O)[C@H](CCCNC(N)=O)NC(=O)[C@H](Cc1c[nH]cn1)NC(=O)[C@@H](NC(=O)[C@@H](NC(=O)[C@H](Cc1c[nH]c2ccccc12)NC(C)=O)C(C)C)[C@@H](C)O)C(C)C)C(=O)N[C@@H](CCCNC(=N)N)C(=O)N[C@@H](CCCCN)C(=O)N[C@@H](CC(N)=O)C(=O)N[C@@H](Cc1ccccc1)C(=O)N[C@H](C(=O)N1CCC[C@H]1C(=O)N[C@H](C(=O)N[C@@H](CC(=O)O)C(=O)N[C@H](C(=O)NCC(=O)N1CCC[C@H]1C(=O)N[C@@H](Cc1ccccc1)C(=O)N[C@@H](C)C(=O)N[C@@H](Cc1ccccc1)C(N)=O)C(C)C)[C@@H](C)O)C(C)C [compound 940] (Ac-WVTH[Cit]LAGLLS[Cit]SGGV[Nle]RKNFVPTDVGPFAF-NH2)

- IC50 (Table 2D, read-out: IC50): 0.51 nM
Compound: Ac-WVTHRLAGLLSRSGGVKRNNFVPTDVGPFAF-NH2 [compound 823]

- antagonist activity in cAMP assay, in words: somewhat less active
- improvement in potency compared to SEQ ID NO:9 (unPEGylated peptides): more than 4 fold
Compound: SEQ ID NO:8 (Ac-WVTHRLAGLLSRSGGVVRCNFVPTDVGPFAF-NH2)
